This note sets out measurements from patent publication US8772505B2, “Antiviral compounds composed of three aligned aryl moieties to treat diseases such as hepatitis C” (Merck Sharp & Dohme Corp., priority 2009, dated 2014).

Each structure is given as a SMILES string. Read-outs that look alike come from different tables or passages of the source.

In one test the test system is HCV replicon. Nature of the test: Cell-based HCV replicon assay (EC90). As to conditions: Hepatitis C virus, 72 h, replicon RNA by real time PCR (Taqman), day 3, read-out: Biological Activity (EC90, HCV replicon). As for the experimental part:
To measure cell-based anti-HCV activity of selected compounds of the present invention, replicon cells were seeded at 5000 cells/well in 96-well collagen I-coated Nunc plates in the presence of the test compound. Various concentrations of test compound, typically in 10 serial 2-fold dilutions, were added to the assay mixture, with the starting concentration ranging from 250 μM to 1 μM. The final concentration of DMSO was 0.5%, fetal bovine serum was 5%, in the assay media. Cells were harvested on day 3 by the addition of 1× cell lysis buffer (Ambion cat #8721). The replicon RNA level was measured using real time PCR (Taqman assay). The amplicon was located in 5B. The PCR primers were: 5B.2F, ATGGACAGGCGCCCTGA (SEQ. ID NO. 1); 5B.2R, […] (SEQ. ID NO. 2); the probe sequence was FAM-labeled CACGCCATGCGCTGCGG (SEQ. ID NO. 3). GAPDH RNA was used as endogenous control and was amplified in the same reaction as NS5B (multiplex PCR) using primers and VIC-labeled probe recommended by the manufacturer (PE Applied Biosystem). The real-time RT-PCR reactions were run on ABI PRISM 7900HT Sequence Detection System using the following program: 48° C. for 30 min, 95° C. for 10 min, 40 cycles of 95° C. for 15 sec, 60° C. for 1 min. The ACT values (CT5B-CTGAPDH) were plotted against the concentration of test compound and fitted to the sigmoid dose-response model using XLfit4 (MDL). EC50 was defined as the concentration of inhibitor necessary to achieve ΔCT=1 over the projected baseline; EC90 the concentration necessary to achieve ΔCT=3.2 over the baseline. Alternatively, to quantitate the absolute amount of replicon RNA, a standard curve was established by including serially diluted T7 transcripts of replicon RNA in the Taqman assay. All Taqman reagents were from PE Applied Biosystems. Such an assay procedure was described in detail in e.g. Malcolm et al., Antimicrobial Agents and Chemotherapy 50: 1013-1020 (2006).
HCV replicon assay data was calculated for selected compounds of the present invention using this method.

Test [1] deals with HCV replicon genotype 1b c16. The test is described as follows: HCV replicon assay, genotype 1b c16. As to conditions: Hepatitis C virus. Type of test: cell-based. As for the experimental part:
(§1) To measure cell-based anti-HCV activity of selected compounds of the present invention, replicon cells were seeded at 5000 cells/well in 96-well collagen I-coated Nunc plates in the presence of the test compound. Various concentrations of test compound, typically in 10 serial 2-fold dilutions, were added to the assay mixture, with the starting concentration ranging from 250 μM to 1 μM. The final concentration of DMSO was 0.5%, fetal bovine serum was 5%, in the assay media. Cells were harvested on day 3 by the addition of 1× cell lysis buffer (Ambion cat #8721). The replicon RNA level was measured using real time PCR (Taqman assay). The amplicon was located in 5B. The PCR primers were: 5B.2F, ATGGACAGGCGCCCTGA (SEQ. ID NO. 1); 5B.2R, […] (SEQ. ID NO. 2); the probe sequence was FAM-labeled CACGCCATGCGCTGCGG (SEQ. ID NO. 3). GAPDH RNA was used as endogenous control and was amplified in the same reaction as NS5B (multiplex PCR) using primers and VIC-labeled probe recommended by the manufacturer (PE Applied Biosystem). […] Alternatively, to quantitate the absolute amount of replicon RNA, a standard curve was established by including serially diluted T7 transcripts of replicon RNA in the Taqman assay. […]
Background: In antiviral work, replicon cells carry a viral genome segment that copies itself.

Test [2] concerns HCV replicon genotype 1a 1A7. Nature of the test: HCV replicon assay, genotype 1a 1A7. The test is classed as cell-based. To be noted: Hepatitis C virus. The procedure: as §1

As for `COC(=O)N[C@H](C(=O)N1CCC[C@H]1c1nc2ccc(-c3ccc(-c4ccc5nc([C@@H]6CCCN6C(=O)[C@@H](NC(=O)OC)C(C)C)[nH]c5c4)nc3)cc2[nH]1)C(C)C` [Compound 44], the 90% effect concentration (EC90) (in general, the concentration at which the effect reaches the 90% level) in the test with HCV replicon (class symbols) is < 1 nM.
Take `C#CC[C@@H](NC(=O)OC)C(=O)N1CCC[C@H]1c1nc2ccc(-c3ccc(-c4ccc5nc([C@@H]6CCCN6C(=O)[C@@H](CC#C)NC(=O)OC)[nH]c5c4)s3)cc2[nH]1` [Compound 99]: the EC90 in the test with HCV replicon (numeric, unit inferred) was determined as 0.2 nM.
Take `COC(=O)N[C@H](C(=O)N1CCC[C@H]1c1nc2ccc(-c3ccc(-c4ccc5nc([C@@H]6CCCN6C(=O)[C@@H](NC(=O)OC)C(C)C)[nH]c5c4)c4c3ccn4C)cc2[nH]1)C(C)C` [Compound 133]: the EC90 in the test with HCV replicon (class symbols) is < 1 nM.
For `c1cc(-c2ccc3nc([C@@H]4CCCN4)[nH]c3c2)ncc1-c1ccc2nc([C@@H]3CCCN3)[nH]c2c1` [Compound 43], the concentration for an effect of 90% (EC90) with HCV replicon (class symbols) is > 1000 nM.
Still for that read-out and setting: as for `COC(=O)N[C@H](C(=O)N1CCC[C@H]1c1nc2ccc(-c3cnc(-c4ccc5nc([C@@H]6CCCN6C(=O)[C@@H](NC(=O)OC)C(C)C)[nH]c5c4)cn3)cc2[nH]1)C(C)C` [Compound 64], the figure is < 1 nM; as for `[2H]C([2H])([2H])C([2H])(C([2H])([2H])[2H])[C@]([2H])(NC(=O)OC)C(=O)N1C([2H])([2H])C([2H])([2H])C([2H])([2H])[C@]1([2H])c1nc2ccc(-c3ccc(-c4ccc5nc([C@]6([2H])N(C(=O)[C@@]([2H])(NC(=O)OC)C([2H])(C([2H])([2H])[2H])C([2H])([2H])[2H])C([2H])([2H])C([2H])([2H])C6([2H])[2H])[nH]c5c4)c(OC(F)(F)F)c3)cc2[nH]1` [Compound 135], < 1 nM.
Take `COC(=O)N[C@H](C(=O)N1CCC[C@H]1c1nc2cc(F)c(-c3ccc(-c4cc5[nH]c([C@@H]6CCCN6C(=O)[C@@H](NC(=O)OC)C(C)C)nc5cc4F)s3)cc2[nH]1)C(C)C` [Compound 115]: the EC90 with HCV replicon (numeric, unit inferred) worked out at 0.003 nM.
With `COC(=O)N[C@H](C(=O)N1CCC[C@H]1c1ncc(-c2ccc(-c3ccc4nc([C@@H]5CCCN5C(=O)[C@@H](NC(=O)OC)C(C)C)[nH]c4c3)[nH]c2=O)[nH]1)C(C)C` [Compound 91], the concentration for an effect of 90% (EC90) with HCV replicon (numeric) was determined as 6 nM.
As to `COC(=O)N[C@H](C(=O)N1CCC[C@H]1c1nc2cc(F)c(-c3cc(C)c(-c4cc5[nH]c([C@@H]6CCCN6C(=O)[C@@H](NC(=O)OC)C(C)C)nc5cc4F)s3)cc2[nH]1)C(C)C` [Compound 119], in the test with HCV replicon (class symbols), the EC90 is < 1 nM.
Take `[2H]C([2H])([2H])C([2H])(C([2H])([2H])[2H])[C@]([2H])(NC(=O)OC)C(=O)N1CCC[C@H]1c1nc2ccc(-c3ccc(-c4ccc5nc([C@@H]6CCCN6C(=O)[C@@]([2H])(NC(=O)OC)C([2H])(C([2H])([2H])[2H])C([2H])([2H])[2H])[nH]c5c4)c(OC(F)(F)F)c3)cc2[nH]1` [Compound 134]: in the test on HCV replicon (class symbols), the 90% effect concentration (EC90) was < 1 nM.
On the same count and under the same terms, as for `CC(=O)N1CCC[C@H]1c1nc2ccc(-c3ccc(-c4ccc5nc([C@@H]6CCCN6C(C)=O)[nH]c5c4)nc3)cc2[nH]1` [Compound 42], the figure is > 1000 nM; as for `COC(=O)N[C@H](C(=O)N1CCC[C@H]1c1nc2ccc(-c3ccc(-c4ccc5nc([C@@H]6CCCN6C(=O)[C@@H](NC(=O)OC)C(C)C)[nH]c5c4)s3)cc2[nH]1)C(C)C` [Compound 55], < 1 nM.
On to `COC(=O)N[C@H](C(=O)N1CCC[C@H]1c1nc2ccc(-c3ccc(-c4ccc5nc([C@@H]6CCCN6C(=O)[C@@H](NC(=O)OC)C(C)C)[nH]c5c4)c(OC(F)(F)F)c3)cc2[nH]1)C(C)C` [Compound 129], for which the EC50 – broadly, the concentration that produces a half-maximal response – came out at 0.003 nM in test [1] and 0.05 nM in test [2]. Further, the EC90 in the test with HCV replicon (class symbols) is < 1 nM.
`COC(=O)N[C@H](C(=O)N1CCC[C@H]1c1nc2ccc(-c3ccc(-c4ccc5nc([C@@H]6CCCN6C(=O)[C@@H](NC(=O)OC)C(C)C)[nH]c5c4)c4ccccc34)cc2[nH]1)C(C)C` [Compound 59]: in the test with HCV replicon (class symbols), the EC90 is < 1 nM.
Regarding `CCCCc1cc(-c2ccc3nc([C@@H]4CCCN4)[nH]c3c2)sc1-c1ccc2nc([C@@H]3CCCN3)[nH]c2c1` [Compound 72], the EC90 in the test with HCV replicon (numeric) is 26 nM.
Turning to `COC(=O)N[C@H](C(=O)N1CCC[C@H]1c1nc2ccc(-c3cc(-c4ccccc4)c(-c4ccc5nc([C@@H]6CCCN6C(=O)[C@@H](NC(=O)OC)C(C)C)[nH]c5c4)s3)cc2[nH]1)C(C)C` [Compound 128], in the test with HCV replicon (class symbols), the EC90 is < 1 nM.
For the compound `CCCCc1cc(-c2ccc3nc([C@@H]4CCCN4C(=O)[C@@H](NC(=O)OC)C(C)C)[nH]c3c2)sc1-c1ccc2nc([C@@H]3CCCN3C(=O)[C@@H](NC(=O)OC)C(C)C)[nH]c2c1` [Compound 121], the 90% effect concentration (EC90) with HCV replicon (class symbols) is < 1 nM.
Turning to `COC(=O)N[C@H](C(=O)N1CCC[C@H]1c1nc2ccc(-c3cc(C)c(-c4ccc5nc([C@@H]6CCCN6C(=O)[C@@H](NC(=O)OC)C(C)C)[nH]c5c4)s3)cc2[nH]1)C(C)C` [Compound 103], the EC90 with HCV replicon (numeric, unit inferred) was found to be 0.005 nM.
